Measurements from patent publication US5057523A, “Dipeptide quinolone derivatives” (Abbott Laboratories, priority 1989, dated 1991).
Values after ≈ are worked out from the molar mass of the structure shown.

How the values were obtained:
[1] = Aqueous solubility (water and pH 7.4); details: the sign > refers to an approximate value, solubility may be within 10% higher
[2] = test system: KLEBSIELLA PNEUMONIAE ATCC 8045; assay: In vitro antibacterial activity, agar dilution MIC (BHIA); format: cell-based; details: BHI agar
[3] = test system: STREPTOCOCCUS PYOGENES 930 CONST; assay: as above; format: cell-based; details: BHI agar
[4] = test system: PSEUDOMONAS AERUGINOSA A5007; assay: as above; format: cell-based; details: BHI agar
ESCHERICHIA COLI JUHL = assay: as above; format: cell-based; details: BHI agar
[5] = test system: MICROCOCCUS LUTEUS ATCC 9341; assay: as above; format: cell-based; details: BHI agar
[6] = test system: STREPTOCOCCUS PYOGENES EES61; assay: as above; format: cell-based; details: BHI agar
ESCHERICHIA COLI DC-2 = assay: as above; format: cell-based; details: BHI agar
Text: (§1) The MIC results are in μg/ml.

ESCHERICHIA COLI H560 = assay: as above; format: cell-based; details: BHI agar
Text: as §1

ESCHERICHIA COLI SS = assay: as above; format: cell-based; details: BHI agar
Text: as §1

PSEUDOMONAS CEPACIA 2961 = assay: as above; format: cell-based; details: BHI agar
[7] = test system: STREPTOCOCCUS PYOGENES 2548 INDUC; assay: as above; format: cell-based; details: BHI agar
[8] = test system: PROVIDENCIA STUARTII CMX 640; assay: as above; format: cell-based; details: BHI agar
[9] = test system: ENTEROBACTER AEROGENES ATCC 13048; assay: as above; format: cell-based; details: BHI agar
[10] = test system: PSEUDOMONAS AERUGINOSA K799/WT; assay: as above; format: cell-based; details: BHI agar
ESCHERICHIA COLI KNK 437 = assay: as above; format: cell-based; details: BHI agar
[11] = test system: STREPTOCOCCUS AGALACTIAE CMX 508; assay: as above; format: cell-based; details: BHI agar
[12] = test system: STREPTOCOCCUS BOVIS A5169; assay: as above; format: cell-based; details: BHI agar
[13] = test system: ENTEROCOCCUS FAECIUM ATCC 8043; assay: as above; format: cell-based; details: BHI agar
[14] = test system: MICROCOCCUS LUTEUS ATCC 4698; assay: as above; format: cell-based; details: BHI agar
ACINETOBACTER SP CMX 669 = assay: as above; format: cell-based; details: BHI agar
[15] = test system: PSEUDOMONAS AERUGINOSA K799/61; assay: as above; format: cell-based; details: BHI agar
[16] = test system: PSEUDOMONAS AERUGINOSA BMH10; assay: as above; format: cell-based; details: BHI agar
[17] = Plasma level in dog after oral dose; format: in vivo; details: 10 mg equivalent/kg oral dose, HPLC
Text: The plasma samples were collected and determined by the HPLC analysis.

P. Aeruginosa A5007 = assay: Acute mouse protection test; format: in vivo; details: mice infected intraperitoneally with P. Aeruginosa A5007, dosed at 1 and 5 hours post-infection
Stap. Aureus NCTC 10649 = assay: Acute mouse protection test; format: in vivo; details: mice infected intraperitoneally with Stap. Aureus NCTC 10649, dosed at 1 and 5 hours post-infection
E. Coli Juhl [18] = assay: Second in vitro test, MIC in Brain Heart Infusion Broth (BHIB)
Procedure: (§2) The in vitro antibacterial activity of the test compounds was determined by conventional agar dilution procedures. The organisms were grown overnight in brain-heart infusion (BHI) broth (Difco 0037-01-6) at 36° C. Twofold dilutions of the stock solution (2000 mcg/mL) of the test compound were made in BHI agar to obtain a test concentration ranging from 200 to 0.005 mcg/mL. The plate was inoculated with approximately 10^4 organisms. It was then incubated at 36° C. for 18 h.

Stap. Aureus CMX 553 = assay: as above
Procedure: as §2

Ps. Aeruginosa A5007 = assay: as above
Procedure: as §2

E. Coli Juhl [19] = assay: Acute mouse protection test; format: in vivo; details: mice infected intraperitoneally with E. Coli JUHL, dosed at 1 and 5 hours post-infection
Strep pyogenes EES 61 = assay: Second in vitro test, MIC in Brain Heart Infusion Broth (BHIB)
Procedure: as §2

[20] = Conversion of prodrug to parent drug in whole blood at 37° C.; format: in vitro ADME; details: conversion to parent drug in dog whole blood at 37° C.; seconds; two values = two prodrug peaks
Procedure: An aqueous solution of prodruq (Z) is spiked into fresh whole blood containing sodium heparin as an anticoagulant. The sample is mixed gently by inversion and placed in a 37° waterbath. At selected time intervals an 0.5 ml aliquot of blood is removed and placed in a chilled 1.5 ml centrifuge tube (ice temperature). Samples are centrifuges at 13,000 rpm for two minutes to separate plasma. An 0.2 ml aliquot of the plasma sample is combined with 0.2 ml internal standard (7-(4-amino-2-methyl-1-pyrrolidinyl)-1-(2,4-difluorophenyl)-6-fluoro-1,4-d ihydro-4-oxo-1,8-naphthyridine-3-carboxylic acid in 0.2 M sodium phosphate pH 7.2 buffer) and 6 mls CH2 Cl2 :EtoH (9:1 by volume). Samples are capped and shaken gently for 10 minutes. Samples are centrifuqes at 2500 rpm for 10 minutes (4° C.). The aqueous layer is aspirated to waste and the organic layer is transferred to a conical centrifuge tube and evaporated to dryness with a stream of dry air and low heat […]. Samples are reconstituted with 0.2 ml mobile phase followed by vortexing. Samples are centrifuqes at 2500 rpm for 10 minutes to separate precipitate. The supernatant is transferred to a WISP vial with plastic insert for HPLC analysis.

| Compound | Water Solubility [1] [mg/mL] | MIC [2] | MIC [3] | MIC [4] [µg/mL] | MIC (ESCHERICHIA COLI JUHL) | MIC [5] [µg/mL] | MIC (ESCHERICHIA COLI DC-2) [µg/mL] | MIC (ESCHERICHIA COLI H560) | MIC (ESCHERICHIA COLI SS) | MIC (PSEUDOMONAS CEPACIA 2961) [µg/mL] | MIC [8] [µg/mL] | MIC [9] [µg/mL] | MIC [10] [µg/mL] | MIC (ESCHERICHIA COLI KNK 437) [µg/mL] | MIC [14] | MIC [15] | MIC [16] [µg/mL] | Oral (ED50) (P. Aeruginosa A5007) [mg/kg/day] | Oral (ED50) (Stap. Aureus NCTC 10649) [mg/kg/day] | Oral (ED50) (E. Coli Juhl [19]) [mg/kg/day] | further results |
| --- | --- | --- | --- | --- | --- | --- | --- | --- | --- | --- | --- | --- | --- | --- | --- | --- | --- | --- | --- | --- | --- |
| NC1CCN(c2nc3c(cc2F)c(=O)c(C(=O)O)cn3-c2ccc(F)cc2)C1 (stereo not drawn) [compound A, 7-(3-amino-1-pyrrolidinyl)-6-fluoro-1-(4-fluorophenyl)-1,4-dihydro-4-oxo-1 ,8-naphthyridine-3-carboxylic acid, reference compound] | 1.4 | – | – | – | – | – | – | – | – | – | – | – | – | – | – | – | – | – | – | – | – |
| 7-[3-Norvaline-amino-1-pyrrolidinyl]-1-(2,4-difluoro-phenyl)- 6-fluoro-1,4-dihydro-4-oxo-1,8-naphthyridine-3-carboxylic acid hydrochloride [Example 2b] | – | .39 µg/mL | .78 µg/mL | 12.5 | .78 µg/mL | 25 | 12.5 | .78 µg/mL | .02 µg/mL | 50 | 50 | 3.1 | 6.2 | 6.2 | 25 µg/mL | .39 µg/mL | 6.2 | – | – | – | MIC ([6]; STREPTOCOCCUS PYOGENES EES61): 1.56 µg/mL; MIC [7]: .39 µg/mL; MIC ([11]; STREPTOCOCCUS AGALACTIAE CMX 508): 1.56 µg/mL; MIC ([12]; STREPTOCOCCUS BOVIS A5169): 1.56 µg/mL; MIC ([13]; ENTEROCOCCUS FAECIUM ATCC 8043): .78 µg/mL; MIC (ACINETOBACTER SP CMX 669): 3.1 µg/mL |
| CCC[C@H](NC(=O)[C@H](C)N)C(=O)NC1CCN(c2nc3c(cc2F)c(=O)c(C(=O)O)cn3-c2ccc(F)cc2F)C1 (stereo partly drawn) [Example 55b, 7-(3-Ala-Nval-amino-1-pyrrolidinyl)-6-fluoro-1-(2,4-difluorophenyl)-1,4-di hydro-4-oxo-1,8-naphthyridine-3-carboxylic acid] | 26 | – | – | – | – | – | – | – | – | – | – | – | – | – | – | – | – | – | – | – | – |
| CCC[C@H](NC(=O)[C@@H](N)CCC)C(=O)NC1CCN(c2nc3c(cc2F)c(=O)c(C(=O)O)cn3-c2ccc(F)cc2F)C1.Cl (stereo partly drawn) [Example 3b, 7-(3-L-Norvaline-L-Norvalineamino-1-pyrrolidinyl)-1-(2,4-difluorophenyl)-6-fluoro-1,4-dihydro-4-oxo-1,8-naphthyridine-3-carboxylic acid hydrochloride] | > 40 | – | – | – | – | – | – | – | – | – | – | – | – | – | – | – | – | 9.1 | 1.8 | 4.0 | C max (range) ([17]; maximum plasma concentration): 1.9 (1.5-2.2) mcg/ml; AUC (0-32 h) ([17]; plasma, 0-32 h): 10.2 µg·h/mg; MIC (E. Coli Juhl [18]): 25 µg/mL; MIC (Stap. Aureus CMX 553): 12.5 µg/mL; MIC (Ps. Aeruginosa A5007): 50 µg/mL; MIC (Strep pyogenes EES 61): 12.5 µg/mL; Half Life Dog [20]: 1.44 min |
| Cl.NCC(=O)N[C@@H](Cc1ccccc1)C(=O)NC1CCN(c2nc3c(cc2F)c(=O)c(C(=O)O)cn3-c2ccc(F)cc2F)C1 (stereo partly drawn) [Example 1b, 7-[(3-Gly-L-Phe-amino)-1-pyrrolidinyl]-1-(2,4-difluorophenyl)-6-fluoro-1,4-dihydro-4-oxo-1,8-naphthyridine-3-carboxyli c acid hydrochloride] | – | 12.5 µg/mL | .78 µg/mL | 25 | 3.12 µg/mL | 6.25 | 100 | 1.56 µg/mL | .2 µg/mL | 50 | 100 | 12.5 | 25 | 25 | .78 µg/mL | 12.5 µg/mL | 25 | 27.3 | 0.7 | 1.8 | MIC ([6]; STR[…] EES61): 1.56 µg/mL; MIC [7]: .78 µg/mL; MIC ([11]; STR[…] 508): 1.56 µg/mL; MIC ([12]; STR[…] A5169): 1.56 µg/mL; MIC ([13]; EN[…] ATCC 8043): 1.56 µg/mL; MIC (ACINETOBACTER SP CMX 669): 12.5 µg/mL |
| CC(N)C(=O)NC(C)C(=O)NC1CCN(c2nc3c(cc2F)c(=O)c(C(=O)O)cn3-c2ccc(F)cc2F)C1 (stereo not drawn) [Example 15] | – | – | – | 100 (≈ 183 µM) | – | > 100 | 100 (≈ 183 µM) | 6.2 µg/mL (≈ 11.3 µM) | .39 µg/mL (≈ 0.714 µM) | 50 (≈ 91.5 µM) | 100 (≈ 183 µM) | 25 (≈ 45.7 µM) | 50 (≈ 91.5 µM) | 50 (≈ 91.5 µM) | 100 µg/mL (≈ 183 µM) | 3.1 µg/mL (≈ 5.67 µM) | 100 (≈ 183 µM) | 9.1 | 1.3 | 2.0 | MIC ([12]; STREPTOCOCCUS BOVIS A5169): 50 µg/mL (≈ 91.5 µM); MIC ([13]; ENTEROCOCCUS FAECIUM ATCC 8043): 50 µg/mL (≈ 91.5 µM) |
